Reference: paper PMC7655827, “NeoR, a near-infrared absorbing rhodopsin” (Nature Communications, 2020)

Legend:
Type in all cases: binding
[1] = target: T1, NeoR (RGC3), rhodopsin fragment (Rhizoclosmatium globosum, UniProt A0A1Y2CSJ0, T238P); assay: UV-Vis absorption and fluorescence of purified protein; details: 50 mM HEPES pH 7.4, 200 mM NaCl, 0.02% DDM/0.004% CHS; covalent (retinal Schiff base)
T1 construct: gene BCR33DRAFT_847233; rhodopsin domain aa 1-279; C-terminal strepII tag (Sf21) or C-terminal 1D4 tag TETSQVAPA (HEK-T, mutants)
T1 sequence (A0A1Y2CSJ0 entry or part of it T238P): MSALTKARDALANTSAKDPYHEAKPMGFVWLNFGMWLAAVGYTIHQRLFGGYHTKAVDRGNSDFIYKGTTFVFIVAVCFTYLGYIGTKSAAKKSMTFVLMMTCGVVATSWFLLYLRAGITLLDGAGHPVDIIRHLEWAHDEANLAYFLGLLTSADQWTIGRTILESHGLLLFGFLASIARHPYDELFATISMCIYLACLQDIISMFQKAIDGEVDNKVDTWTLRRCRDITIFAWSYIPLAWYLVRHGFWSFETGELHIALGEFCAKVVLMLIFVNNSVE

[2] = target: T2, NeoR (RGC3), rhodopsin fragment (Rhizoclosmatium globosum, UniProt A0A1Y2CSJ0, S191A); assay: as above; details: 50 mM HEPES pH 7.4, 200 mM NaCl, 0.02% DDM/0.004% CHS; covalent (retinal Schiff base)
T2 construct: gene BCR33DRAFT_847233; rhodopsin domain aa 1-279; C-terminal strepII tag (Sf21) or C-terminal 1D4 tag TETSQVAPA (HEK-T, mutants)
T2 sequence (A0A1Y2CSJ0 entry or part of it S191A): as the sequence (A0A1Y2CSJ0 entry or part of it T238P) above, with S191A, P238T counted along it

[3] = target: T3, NeoR (RGC3), rhodopsin fragment (Rhizoclosmatium globosum, UniProt A0A1Y2CSJ0, E262Q); assay: as above; details: 50 mM HEPES pH 7.4, 200 mM NaCl, 0.02% DDM/0.004% CHS; covalent (retinal Schiff base)
T3 construct: gene BCR33DRAFT_847233; rhodopsin domain aa 1-279; C-terminal strepII tag (Sf21) or C-terminal 1D4 tag TETSQVAPA (HEK-T, mutants)
T3 sequence (A0A1Y2CSJ0 entry or part of it E262Q): as the sequence (A0A1Y2CSJ0 entry or part of it T238P) above, with P238T, E262Q counted along it

[4] = target: T4, NeoR (RGC3), rhodopsin fragment (Rhizoclosmatium globosum, UniProt A0A1Y2CSJ0, E136Q); assay: as above; details: 50 mM HEPES pH 7.4, 200 mM NaCl, 0.02% DDM/0.004% CHS; covalent (retinal Schiff base)
T4 construct: gene BCR33DRAFT_847233; rhodopsin domain aa 1-279; C-terminal strepII tag (Sf21) or C-terminal 1D4 tag TETSQVAPA (HEK-T, mutants)
T4 sequence (A0A1Y2CSJ0 entry or part of it E136Q): as the sequence (A0A1Y2CSJ0 entry or part of it T238P) above, with E136Q, P238T counted along it

NeoR full-length protein = target: T5, NeoR full-length protein (Rhizoclosmatium globosum, UniProt A0A1Y2CSJ0); assay: UV-Vis absorption of purified protein; details: detergent; covalent (retinal Schiff base)
T5 construct: gene BCR33DRAFT_847233; full length aa 1-509, C-terminal His(8) tag, Sf21 insect cells
T5 sequence (A0A1Y2CSJ0 1-509): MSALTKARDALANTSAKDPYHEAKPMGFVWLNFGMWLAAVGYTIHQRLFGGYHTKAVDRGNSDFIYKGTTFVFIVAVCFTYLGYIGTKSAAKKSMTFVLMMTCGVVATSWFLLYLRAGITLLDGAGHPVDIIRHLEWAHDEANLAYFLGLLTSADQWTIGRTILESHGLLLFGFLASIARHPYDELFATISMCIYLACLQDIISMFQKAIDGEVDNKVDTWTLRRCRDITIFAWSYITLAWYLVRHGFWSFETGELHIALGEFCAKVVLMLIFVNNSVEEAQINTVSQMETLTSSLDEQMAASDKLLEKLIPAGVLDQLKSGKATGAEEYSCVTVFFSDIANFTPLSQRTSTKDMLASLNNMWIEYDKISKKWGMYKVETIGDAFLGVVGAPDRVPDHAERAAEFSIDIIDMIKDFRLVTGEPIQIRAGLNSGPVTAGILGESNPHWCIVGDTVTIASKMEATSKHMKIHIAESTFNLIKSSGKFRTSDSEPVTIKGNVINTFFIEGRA

[5] = target: T6, NeoR (RGC3), rhodopsin fragment (Rhizoclosmatium globosum, UniProt A0A1Y2CSJ0); assay: UV-Vis absorption and fluorescence of purified protein; details: 50 mM HEPES pH 7.4, 200 mM NaCl, 0.02% DDM/0.004% CHS; covalent (retinal Schiff base)
T6 construct: gene BCR33DRAFT_847233; rhodopsin domain aa 1-279; C-terminal strepII tag (Sf21) or C-terminal 1D4 tag TETSQVAPA (HEK-T, mutants)

[6] = target: T7, NeoR (RGC3), rhodopsin fragment (Rhizoclosmatium globosum, UniProt A0A1Y2CSJ0, T238A); assay: as above; details: 50 mM HEPES pH 7.4, 200 mM NaCl, 0.02% DDM/0.004% CHS; covalent (retinal Schiff base)
T7 construct: gene BCR33DRAFT_847233; rhodopsin domain aa 1-279; C-terminal strepII tag (Sf21) or C-terminal 1D4 tag TETSQVAPA (HEK-T, mutants)
T7 sequence (A0A1Y2CSJ0 entry or part of it T238A): as the sequence (A0A1Y2CSJ0 entry or part of it T238P) above, with P238A counted along it

Compound: CC1=C(/C=C/C(C)=C/C=C/C(C)=C/C=O)C(C)(C)CCC1 [all-trans retinal]
- UV-Vis absorption and fluorescence of purified protein [1]: achieved by mutation of S191A and T238P/A, which are located near the β-ionone ring
- UV-Vis absorption and fluorescence of purified protein [2]: achieved by mutation of S191A and T238P/A, which are located near the β-ionone ring
- UV-Vis absorption and fluorescence of purified protein [3]: Mutation of either one of these to Gln results in chromophore deprotonation
- UV-Vis absorption and fluorescence of purified protein [4]: Mutation of either one of these to Gln results in chromophore deprotonation
- UV-Vis absorption of purified protein (NeoR full-length protein): The spectral properties are similar for the NeoR full-length protein and the rhodopsin fragment
- UV-Vis absorption and fluorescence of purified protein [5]: in the absence of retinal no functional rhodopsin was produced when recombinant NeoR was expressed
- UV-Vis absorption and fluorescence of purified protein [6]: achieved by mutation of S191A and T238P/A, which are located near the β-ionone ring
